From ChEMBL document CHEMBL1201862, “PubChem BioAssay data set” (2004)
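Test compounds were applied to cells in 96-well plates for 48 hours at 5 doses. Here, GI50 denotes the concentration required for 50% inhibition of growth.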 Calls of active or inactive are those of the source. Rule as the data show it: active = GI50 up to about 1.1 µM and inactive = higher. Where a SMILES comes first, the peptide text is derived from it. The star is where a group is joined. Boc = CC(C)(C)OC(=O)*; OBn = c1ccc(CO*)cc1

What was measured:
Experiment in all cases: growth of human tumour cells (NCI), 48 h
[1] = tested on: MDA-N
[2] = tested on: RXF 393
[3] = tested on: M14
[4] = tested on: UACC-257
[5] = tested on: MCF7
[6] = tested on: NCI/ADR-RES
[7] = tested on: PC-3
[8] = tested on: SK-MEL-28
[9] = tested on: MDA-MB-435
[10] = tested on: HCT-116
[11] = tested on: ACHN
[12] = tested on: SK-MEL-5
[13] = tested on: HCC 2998
[14] = tested on: K562
[15] = tested on: CAKI-1
[16] = tested on: A498
[17] = tested on: MDA-MB-231
[18] = tested on: SR
[19] = tested on: SK-MEL-2

SMILES	GI50 [1]	GI50 [2]	GI50 [3]	GI50 [4]	GI50 [5]	GI50 [6]	GI50 [7]	GI50 [8]	GI50 [9]	GI50 [10]	GI50 [11]	GI50 [12]	GI50 [13]	GI50 [14]	GI50 [15]	GI50 [16]	GI50 [17]	GI50 [18]	GI50 [19]
O=C1C[C@H]2[C@H](c3ccc(Br)cc3)[C@H]3C(=O)c4ccccc4NC(=O)[C@@H]3[C@@]2(O)c2ccccc2N1	17.1 µM (inactive)	3.48 µM (inactive)	12.3 µM (inactive)	20.2 µM (inactive)	11.1 µM (inactive)	14.9 µM (inactive)	8.15 µM (inactive)	26.5 µM (inactive)	10 µM (inactive)	12.3 µM (inactive)	11.2 µM (inactive)	19.3 µM (inactive)	11.7 µM (inactive)	12 µM (inactive)	5.85 µM (inactive)	8.34 µM (inactive)	14.4 µM (inactive)	7.41 µM (inactive)	
CCOC(=O)c1cc(Br)c(-c2onc(C)c2Br)[nH]1	> 100 µM (inactive)	16.7 µM (inactive)	66.2 µM (inactive)	93.5 µM (inactive)	> 100 µM (inactive)	40.6 µM (inactive)	> 100 µM (inactive)	> 100 µM (inactive)	> 100 µM (inactive)	28.8 µM (inactive)		42.1 µM (inactive)	53.7 µM (inactive)	> 100 µM (inactive)	45.7 µM (inactive)	48.2 µM (inactive)	17.1 µM (inactive)	> 100 µM (inactive)	80.7 µM (inactive)
C=C1CC(OC(C)=O)/C=C(/C)CCC(C(C)(C)O)CC1O (stereo not given)	> 100 µM (inactive)	> 100 µM (inactive)	> 100 µM (inactive)	> 100 µM (inactive)	> 100 µM (inactive)	> 100 µM (inactive)	> 100 µM (inactive)	> 100 µM (inactive)	> 100 µM (inactive)	> 100 µM (inactive)	> 100 µM (inactive)	> 100 µM (inactive)	> 100 µM (inactive)		> 100 µM (inactive)	> 100 µM (inactive)	> 100 µM (inactive)	> 100 µM (inactive)	> 100 µM (inactive)
COc1ccc(CNc2nc3ccccc3nc2C(=O)O)cc1	> 100 µM (inactive)	> 100 µM (inactive)	> 100 µM (inactive)	> 100 µM (inactive)	> 100 µM (inactive)	38.9 µM (inactive)	> 100 µM (inactive)	> 100 µM (inactive)	> 100 µM (inactive)	51.6 µM (inactive)		52.6 µM (inactive)	> 100 µM (inactive)	93.3 µM (inactive)	> 100 µM (inactive)	> 100 µM (inactive)	> 100 µM (inactive)	41.1 µM (inactive)	> 100 µM (inactive)
O=C(NCP(=O)(c1ccccc1)c1ccccc1)OCc1ccccc1	> 100 µM (inactive)	82.6 µM (inactive)	> 100 µM (inactive)		> 100 µM (inactive)	73.5 µM (inactive)	64.3 µM (inactive)	> 100 µM (inactive)	> 100 µM (inactive)	> 100 µM (inactive)	> 100 µM (inactive)	> 100 µM (inactive)	> 100 µM (inactive)	> 100 µM (inactive)	> 100 µM (inactive)	> 100 µM (inactive)	60.1 µM (inactive)	> 100 µM (inactive)	> 100 µM (inactive)
CN(Cc1cnc2nc(N)nc(N)c2n1)c1ccc(C(=O)NC(CO)CCCO)cc1 (stereo not given)	> 100 µM (inactive)	> 100 µM (inactive)	> 100 µM (inactive)	> 100 µM (inactive)	> 100 µM (inactive)	> 100 µM (inactive)	> 100 µM (inactive)	> 100 µM (inactive)	> 100 µM (inactive)	> 100 µM (inactive)	> 100 µM (inactive)	> 100 µM (inactive)		> 100 µM (inactive)	> 100 µM (inactive)	> 100 µM (inactive)	> 100 µM (inactive)	> 100 µM (inactive)	> 100 µM (inactive)
C=CCOCn1cnc2c(=O)[nH]c(N)nc21	> 100 µM (inactive)		> 100 µM (inactive)		> 100 µM (inactive)	> 100 µM (inactive)	> 100 µM (inactive)	> 100 µM (inactive)	> 100 µM (inactive)	> 100 µM (inactive)	> 100 µM (inactive)	> 100 µM (inactive)	> 100 µM (inactive)	> 100 µM (inactive)	> 100 µM (inactive)	> 100 µM (inactive)	> 100 µM (inactive)	> 100 µM (inactive)	> 100 µM (inactive)
CC(=O)Oc1ccc2c3c1O[C@H]1[C@H](O)CC[C@@]4(O)[C@@H](C2)N(C)CC[C@]314	> 100 µM (inactive)		> 100 µM (inactive)	> 100 µM (inactive)	> 100 µM (inactive)	> 100 µM (inactive)	> 100 µM (inactive)	> 100 µM (inactive)	> 100 µM (inactive)	> 100 µM (inactive)	> 100 µM (inactive)	> 100 µM (inactive)			> 100 µM (inactive)	> 100 µM (inactive)	> 100 µM (inactive)	> 100 µM (inactive)	> 100 µM (inactive)
CN(C(=O)[C@H](NC(=O)OCc1ccccc1)c1ccccc1)C1CCCCC1N1CCCC1 (stereo not given in full)	> 100 µM (inactive)	87.3 µM (inactive)	23.4 µM (inactive)	26.1 µM (inactive)	98.2 µM (inactive)	> 100 µM (inactive)	69.7 µM (inactive)	> 100 µM (inactive)	70.8 µM (inactive)	69.2 µM (inactive)	> 100 µM (inactive)	16 µM (inactive)		29 µM (inactive)	> 100 µM (inactive)	89.9 µM (inactive)	> 100 µM (inactive)	20.7 µM (inactive)	> 100 µM (inactive)
OCC1OC(n2cnc3c(/C=C(/O)c4ccccc4)ncnc32)C(O)C1O (stereo not given)	4.89 µM (inactive)	4.12 µM (inactive)	0.813 µM (active)	3.89 µM (inactive)	3.8 µM (inactive)	2.11 µM (inactive)	4.04 µM (inactive)	41.8 µM (inactive)	2.25 µM (inactive)	1.55 µM (inactive)	0.923 µM (active)	5.65 µM (inactive)		2.83 µM (inactive)	3.11 µM (inactive)	2.16 µM (inactive)	1.64 µM (inactive)	1.35 µM (inactive)	1.01 µM (active)
CCc1nnc(S)n1/N=C\c1ccc(-c2ccccc2[N+](=O)[O-])o1	17.6 µM (inactive)	63.5 µM (inactive)	39.7 µM (inactive)	76.4 µM (inactive)	19.9 µM (inactive)	26.3 µM (inactive)	41.5 µM (inactive)		15.4 µM (inactive)	32.3 µM (inactive)	52.5 µM (inactive)	12 µM (inactive)		27.9 µM (inactive)	51.4 µM (inactive)	49.4 µM (inactive)	47.2 µM (inactive)	16.9 µM (inactive)	29.4 µM (inactive)
O=C(C(Cl)=C(N1CCOCC1)N1CCOCC1)C(Cl)Cl	> 100 µM (inactive)	> 100 µM (inactive)	> 100 µM (inactive)	> 100 µM (inactive)	94.2 µM (inactive)	> 100 µM (inactive)	> 100 µM (inactive)	> 100 µM (inactive)	> 100 µM (inactive)	> 100 µM (inactive)	> 100 µM (inactive)	> 100 µM (inactive)	> 100 µM (inactive)	> 100 µM (inactive)	> 100 µM (inactive)	> 100 µM (inactive)	> 100 µM (inactive)	34.5 µM (inactive)	
Cc1c(C)c(S(=O)(=O)N(CCCCCON)OCCCN)c(C)c2c1OC(C)(C)CC2	14.3 µM (inactive)	12.3 µM (inactive)	7 µM (inactive)	15.9 µM (inactive)	8.18 µM (inactive)	15.9 µM (inactive)	13.2 µM (inactive)	16.5 µM (inactive)	11.8 µM (inactive)	14.8 µM (inactive)	16.4 µM (inactive)	15.9 µM (inactive)		3.94 µM (inactive)	6.41 µM (inactive)	14.6 µM (inactive)	15.7 µM (inactive)	2.71 µM (inactive)	15.4 µM (inactive)
CC(NC(=O)C(Cc1ccccc1)NC(=O)C(Cc1ccccc1)NC(=O)OC(C)(C)C)C(=O)OCc1ccccc1 (stereo not drawn) (Boc-Phe-Phe-Ala-OBn; configuration not given here)	> 100 µM (inactive)	30.7 µM (inactive)	48.4 µM (inactive)	> 100 µM (inactive)	53.5 µM (inactive)	> 100 µM (inactive)	68.7 µM (inactive)		> 100 µM (inactive)	76.9 µM (inactive)		94.2 µM (inactive)	54.2 µM (inactive)	64.3 µM (inactive)	> 10 µM (inactive)	> 100 µM (inactive)	> 100 µM (inactive)	28.6 µM (inactive)	> 100 µM (inactive)
c1ccc2c(-c3ccnc(-c4c[nH]c5ccccc45)n3)c[nH]c2c1	2.78 µM (inactive)		1.99 µM (inactive)	4.34 µM (inactive)	2.74 µM (inactive)	16.4 µM (inactive)	2.72 µM (inactive)	6.9 µM (inactive)	4.52 µM (inactive)	4.36 µM (inactive)	3.13 µM (inactive)	3.27 µM (inactive)	2.79 µM (inactive)	4.13 µM (inactive)	4.25 µM (inactive)	2.23 µM (inactive)	1.85 µM (inactive)	4.25 µM (inactive)	4.16 µM (inactive)
